How the values were obtained:
[1] = system: Fluoribacter gormanii; assay: Activity at Fluoribacter gormanii 1K07 metallo-beta-lactamase FEZ-1
[2] = system: Stenotrophomonas maltophilia; assay: Activity at Stenotrophomonas maltophilia 1SML metallo-beta-lactamase L1
[3] = system: Bradyrhizobium japonicum; assay: Activity at Bradyrhizobium japonicum metallo-beta-lactamase BJP-1
[4] = system: Bradyrhizobium japonicum; assay: Ratio of Kcat to Km for Bradyrhizobium japonicum metallo-beta-lactamase BJP-1
[5] = system: Fluoribacter gormanii; assay: Ratio of Kcat to Km for Fluoribacter gormanii 1K07 metallo-beta-lactamase FEZ-1
[6] = system: Stenotrophomonas maltophilia; assay: Ratio of Kcat to Km for Stenotrophomonas maltophilia 1SML metallo-beta-lactamase L1

Which results are given for `CC1(C)S[C@@H]2[C@H](NC(=O)[C@H](N)c3ccccc3)C(=O)N2[C@H]1C(=O)O`?
Km [1]: > 5000 µM; Km [2]: 40 µM; Km [3]: 670 µM; kcat/Km [4]: 1.9 ×10⁴ /M/s; kcat/Km [5]: 1.1 ×10⁴ /M/s; kcat/Km [6]: 4.4 ×10⁶ /M/s

`CC1(C)S[C@@H]2[C@H](NC(=O)[C@H](C(=O)O)c3ccsc3)C(=O)N2[C@H]1C(=O)O` was tested. Which Km [1] did it give?
The Km was over 5000 µM.

What about the Km [2] of the same compound?
Its Km is 140 µM.

What about the kcat/Km [5] of the same compound?
Its kcat/Km is 1.3 ×10⁴ /M/s.

What about the kcat/Km [6] of the same compound?
The kcat/Km was 2.7 ×10⁶ /M/s.

For `C[C@@H](O)[C@H]1C(=O)N2C(C(=O)O)=C(SCCNC=N)C[C@H]12`, which Km [1] is on record?
Its Km is over 1000 µM.

What about the Km [2] of the same compound?
Its Km is 90 µM.

And the Km [3]?
Its Km is 260 µM.

What about the kcat/Km [4] of the same compound?
The kcat/Km was 6 ×10⁴ /M/s.

What about the kcat/Km [5] of the same compound?
The kcat/Km was 2 ×10⁵ /M/s.

What about the kcat/Km [6] of the same compound?
Its kcat/Km is 7.3 ×10⁵ /M/s.

How did the Km [1] turn out when `CCN1CCN(C(=O)N[C@@H](C(=O)N[C@@H]2C(=O)N3[C@@H]2SC(C)(C)[C@@H]3C(=O)O)c2ccccc2)C(=O)C1=O` was run?
The Km was 4200 µM.

And the Km [2]?
Its Km is 20 µM.

What about the Km [3] of the same compound?
Its Km is 700 µM.

And the kcat/Km [4]?
The kcat/Km was 6.7 ×10⁴ /M/s.

What about the kcat/Km [5] of the same compound?
The kcat/Km was 1.2 ×10⁴ /M/s.

And the kcat/Km [6]?
The kcat/Km was 7 ×10⁶ /M/s.

— ChEMBL document CHEMBL1687782, “High-resolution crystal structure of the subclass B3 metallo-beta-lactamase BJP-1: rational basis for substrate specificity and interaction with sulfonamides” (Antimicrob Agents Chemother, 2010)
